From patent publication US6503881B2 (priority 1996, dated 2003)
Like-named read-outs stand apart in the source and are kept apart here.

Tests used:
a bacterial strain = type: cell-based
E. faecalis = type: cell-based; settings: for MBI 26 MIC, +Teicoplanin: in combination with teicoplanin; for MIC in combination: Teicoplanin + MBI 26
P. aeruginosa = type: cell-based
[1] = system: inherently resistant microorganisms; settings: for MBI 26 MIC +Vancomycin: Teicoplanin table; for MIC in combination: Vancomycin +MBI 26
[2] = system: microorganisms with acquired resistance

KWKSFIKKLTSAAKKVVTTAKPLISS [MBI 26]
killing in time kill assay (a bacterial strain): greater killing than either peptide or antibiotic agent alone
MIC Alone (E. faecalis; E. faecalis 97040 VanB, agent alone): 64 µg/mL
MBI 26 MIC, +Teicoplanin (E. faecalis; E. faecalis 97040 VanB): 8 µg/mL
MIC Alone (E. faecalis; E. faecalis 97041 VanB, agent alone): 64 µg/mL
MBI 26 MIC, +Teicoplanin (E. faecalis; E. faecalis 97041 VanB): 8 µg/mL
MIC Alone (E. faecalis; E. faecalis 97042 VanB, agent alone): 64 µg/mL
MBI 26 MIC, +Teicoplanin (E. faecalis; E. faecalis 97042 VanB): 8 µg/mL
MIC Alone (E. faecalis; E. faecalis 97043 VanB, agent alone): 64 µg/mL
MBI 26 MIC, +Teicoplanin (E. faecalis; E. faecalis 97043 VanB): 8 µg/mL
MIC Alone (E. faecalis; E. faecalis 97050 VanA): 64 µg/mL
MIC in combination (E. faecalis; E. faecalis 97050 VanA): 8 µg/mL
MIC Alone (E. faecalis; E. faecalis 97051 VanA): 64 µg/mL
MIC in combination (E. faecalis; E. faecalis 97051 VanA): 8 µg/mL
MIC Alone (E. faecalis; E. faecalis 97052 VanA): 64 µg/mL
MIC in combination (E. faecalis; E. faecalis 97052 VanA): 8 µg/mL
MIC Alone (E. faecalis; E. faecalis 97053 VanA): 64 µg/mL
MIC in combination (E. faecalis; E. faecalis 97053 VanA): 8 µg/mL
MIC Alone (E. faecalis; E. faecalis 97054 VanA): 64 µg/mL
MIC in combination (E. faecalis; E. faecalis 97054 VanA): 8 µg/mL
MIC Alone (E. faecalis; E. faecalis 97055 VanA): 64 µg/mL
MIC in combination (E. faecalis; E. faecalis 97055 VanA): 8 µg/mL
MIC in combination (P. aeruginosa; P. aeruginosa PA024, pair Ceftriaxone / MBI 26): 32 µg/mL
MIC Alone (P. aeruginosa; P. aeruginosa PA041, agent alone): 64 µg/mL
MBI 26 MIC, +Erythro. (P. aeruginosa; P. aeruginosa PA041, in combination with erythromycin): 32 µg/mL
MBI 26 MIC +Vancomycin ([1]; E. casseliflavus 97056 VanC): 2 µg/mL
MIC in combination ([1]; E. casseliflavus 97056 VanC): 1 µg/mL
MIC Alone ([1]; E. casseliflavus 97056 VanC, pair Teicoplanin / MBI 26): 64 µg/mL
MIC Alone ([1]; E. casseliflavus 97056 VanC, pair Vancomycin / MBI 26): 8 µg/mL
MBI 26 MIC +Vancomycin ([1]; E. casseliflavus 97057 VanC): 0.5 µg/mL
MIC in combination ([1]; E. casseliflavus 97057 VanC): 0.5 µg/mL
MIC Alone ([1]; E. casseliflavus 97057 VanC, pair Teicoplanin / MBI 26): 64 µg/mL
MIC Alone ([1]; E. casseliflavus 97057 VanC, pair Vancomycin / MBI 26): 2 µg/mL
MBI 26 MIC +Vancomycin ([1]; E. casseliflavus 97058 VanC): 0.5 µg/mL
MIC in combination ([1]; E. casseliflavus 97058 VanC): 0.25 µg/mL
MIC Alone ([1]; E. casseliflavus 97058 VanC, pair Teicoplanin / MBI 26): 32 µg/mL
MIC Alone ([1]; E. casseliflavus 97058 VanC, pair Vancomycin / MBI 26): 4 µg/mL
MBI 26 MIC +Vancomycin ([1]; E. casseliflavus 97059 VanC): 1 µg/mL
MIC in combination ([1]; E. casseliflavus 97059 VanC): 0.5 µg/mL
MIC Alone ([1]; E. casseliflavus 97059 VanC, pair Teicoplanin / MBI 26): 64 µg/mL
MIC Alone ([1]; E. casseliflavus 97059 VanC, pair Vancomycin / MBI 26): 32 µg/mL
MBI 26 MIC +Vancomycin ([1]; E. casseliflavus 97060 VanC): 1 µg/mL
MIC in combination ([1]; E. casseliflavus 97060 VanC): 0.25 µg/mL
MIC Alone ([1]; E. casseliflavus 97060 VanC, pair Teicoplanin / MBI 26): 64 µg/mL
MIC Alone ([1]; E. casseliflavus 97060 VanC, pair Vancomycin / MBI 26): 0.5 µg/mL
MBI 26 MIC +Vancomycin ([1]; E. gallinarum 97044 VanC): 1 µg/mL
MIC in combination ([1]; E. gallinarum 97044 VanC): 0.5 µg/mL
MIC Alone ([1]; E. gallinarum 97044 VanC, pair Teicoplanin / MBI 26): 64 µg/mL
MIC Alone ([1]; E. gallinarum 97044 VanC, pair Vancomycin / MBI 26): 8 µg/mL
MBI 26 MIC +Vancomycin ([1]; E. gallinarum 97046 VanC): 1 µg/mL
MIC in combination ([1]; E. gallinarum 97046 VanC): 4 µg/mL
MIC Alone ([1]; E. gallinarum 97046 VanC, pair Teicoplanin / MBI 26): 8 µg/mL
MIC Alone ([1]; E. gallinarum 97046 VanC, pair Vancomycin / MBI 26): 2 µg/mL
MBI 26 MIC +Vancomycin ([1]; E. gallinarum 97047 VanC): 32 µg/mL
MIC in combination ([1]; E. gallinarum 97047 VanC): 8 µg/mL
MIC Alone ([1]; E. gallinarum 97047 VanC, pair Teicoplanin / MBI 26): 64 µg/mL
MIC Alone ([1]; E. gallinarum 97047 VanC, pair Vancomycin / MBI 26): 64 µg/mL
MBI 26 MIC +Vancomycin ([1]; E. gallinarum 97048 VanC): 1 µg/mL
MIC in combination ([1]; E. gallinarum 97048 VanC): 2 µg/mL
MIC Alone ([1]; E. gallinarum 97048 VanC, pair Teicoplanin / MBI 26): 8 µg/mL
MIC Alone ([1]; E. gallinarum 97048 VanC, pair Vancomycin / MBI 26): 2 µg/mL
MBI 26 MIC +Vancomycin ([1]; E. gallinarum 97049 VanC): 32 µg/mL
MIC in combination ([1]; E. gallinarum 97049 VanC): 16 µg/mL
MIC Alone ([1]; E. gallinarum 97049 VanC, pair Teicoplanin / MBI 26): 64 µg/mL
MIC Alone ([1]; E. gallinarum 97049 VanC, pair Vancomycin / MBI 26): 64 µg/mL
Peptide MIC ([2]; S. aureus SA7609, pair Erythromycin / MBI 26): 1 µg/mL
Peptide MIC ([2]; S. aureus SA7795, pair Erythromycin / MBI 26): 8 µg/mL
Peptide MIC ([2]; S. aureus SA7796, pair Erythromycin / MBI 26): 2 µg/mL
Peptide MIC ([2]; S. aureus SA7818, pair Methicillin / MBI 26): 2 µg/mL
Peptide MIC ([2]; S. aureus SA7835, pair Erythromycin / MBI 26): 2 µg/mL
Peptide MIC ([2]; S. aureus SA7835, pair Methicillin / MBI 26): 16 µg/mL
Peptide MIC ([2]; S. epidermidis SE8403, pair Erythromycin / MBI 26): 2 µg/mL
Peptide MIC ([2]; S. epidermidis SE8410, pair Erythromycin / MBI 26): 1 µg/mL
Peptide MIC ([2]; S. epidermidis SE8411, pair Erythromycin / MBI 26): 1 µg/mL
Peptide MIC ([2]; S. epidermidis SE8497, pair Clindamycin / MBI 26): 2 µg/mL
Peptide MIC ([2]; S. epidermidis SE8497, pair Erythromycin / MBI 26): 1 µg/mL
Peptide MIC ([2]; S. epidermidis SE8503, pair Erythromycin / MBI 26): 1 µg/mL
Peptide MIC ([2]; S. epidermidis SE8565, pair Erythromycin / MBI 26): 1 µg/mL
Peptide MIC ([2]; S. haemolyticus SH8472, pair Ampicillin / MBI 26): 16 µg/mL
Peptide MIC ([2]; S. haemolyticus SH8563, pair Methicillin / MBI 26): 2 µg/mL
Peptide MIC ([2]; S. haemolyticus SH8575, pair Ampicillin / MBI 26): 8 µg/mL
Peptide MIC ([2]; S. haemolyticus SH8578, pair Erythromycin / MBI 26): 0.1 µg/mL
Peptide MIC ([2]; S. haemolyticus SH8597, pair Clindamycin / MBI 26): 1 µg/mL
